The test system of assay [1] is NO-deficient rats. To be noted: cited from earlier work.
Assay [2] relates to Guinea pig tracheal smooth muscle. Kind of assay: Electrical field stimulated guinea pig tracheal smooth muscle contraction (ex vivo). To be noted: sub-maximal EFS, cumulative dose response curve, three animals pooled; read-out: IC50, inhibition of EFS-induced tracheal smooth muscle contraction. The source says:
On each experimental day, a guinea pig is killed by exposure to a rising concentration of CO2 and the trachea removed. The trachea is cleaned of extraneous tissue and cut open longitudinally in a line opposite the muscle, opened out and cut into strips 2-3 cartilage rings wide. A cotton loop is attached to one end of each tracheal strip and a length of cotton to the other end. Tracheal strips are then suspended between two platinum electrodes, using tissue holders, in a Myobath system (World Precision Instruments Stevenage, UK). […] Tissues are washed with Kreb's buffer and stimulated using the previously determined sub-maximal voltage for 1 hour to establish a stable baseline contraction prior to assessment of compound activity.
A cumulative dose response curve (DRC) to each test substance is then performed and changes in smooth muscle contraction measured. The effect of each test substance in each experiment is expressed as a percentage inhibition of the baseline contraction, normalized to the relevant vehicle controls. […] The data from all three experiments are pooled, the DRC plotted, and the test substance potency and efficacy determined.

Assay [3] relates to obese mice. Conditions: cited from earlier work.

Consider three compounds from US20170298055A1, “sGC STIMULATORS” (IRONWOOD PHARMACEUTICALS, INC., priority 2014, published 2017).

Usually IC50 stands for the concentration that inhibits the measured activity by half.

As for `Nc1nc(-c2nn(Cc3ccccc3F)c3ncccc23)ncc1C1CC1` [BAY-2272], the “effect on bladder dysfunction” value in assay [1] is listed as “protective effects”. With `CC(C)[N+]1(C)[C@@H]2CC[C@H]1CC(OC(=O)C(CO)c1ccccc1)C2` (stereo partly drawn) [Ipratropium bromide], the IC50 in assay [2] turned out to be 860 pM. Turning to `O=C(O)CCCCN(CCc1cc(F)ccc1OCc1ccc(-c2ccc(C(F)(F)F)cc2)cc1)Cc1ccc(C(=O)O)cc1` [BAY 60-2770], the “effect on overactive bladder” value in assay [3] is on record as “ameliorates overactive bladder in obese mice”.
